Data: article PMC9927415, “Tyrosine Kinase Inhibitors Display Potent Activity against Cryptosporidium parvum” (Microbiology Spectrum, 2022)

Tests used:
Test in all cases: KINOMEscan competitive binding, whole panel
[1] = target: T1, panel of 203 kinases (Homo sapiens, UniProt O15146); details: 10 µM, n=1; kinase MUSK; read-out: Percent inhibition MUSK
T1 construct: purchased DiscoverX (KINOMEscan)
T1 sequence (O15146 24-869): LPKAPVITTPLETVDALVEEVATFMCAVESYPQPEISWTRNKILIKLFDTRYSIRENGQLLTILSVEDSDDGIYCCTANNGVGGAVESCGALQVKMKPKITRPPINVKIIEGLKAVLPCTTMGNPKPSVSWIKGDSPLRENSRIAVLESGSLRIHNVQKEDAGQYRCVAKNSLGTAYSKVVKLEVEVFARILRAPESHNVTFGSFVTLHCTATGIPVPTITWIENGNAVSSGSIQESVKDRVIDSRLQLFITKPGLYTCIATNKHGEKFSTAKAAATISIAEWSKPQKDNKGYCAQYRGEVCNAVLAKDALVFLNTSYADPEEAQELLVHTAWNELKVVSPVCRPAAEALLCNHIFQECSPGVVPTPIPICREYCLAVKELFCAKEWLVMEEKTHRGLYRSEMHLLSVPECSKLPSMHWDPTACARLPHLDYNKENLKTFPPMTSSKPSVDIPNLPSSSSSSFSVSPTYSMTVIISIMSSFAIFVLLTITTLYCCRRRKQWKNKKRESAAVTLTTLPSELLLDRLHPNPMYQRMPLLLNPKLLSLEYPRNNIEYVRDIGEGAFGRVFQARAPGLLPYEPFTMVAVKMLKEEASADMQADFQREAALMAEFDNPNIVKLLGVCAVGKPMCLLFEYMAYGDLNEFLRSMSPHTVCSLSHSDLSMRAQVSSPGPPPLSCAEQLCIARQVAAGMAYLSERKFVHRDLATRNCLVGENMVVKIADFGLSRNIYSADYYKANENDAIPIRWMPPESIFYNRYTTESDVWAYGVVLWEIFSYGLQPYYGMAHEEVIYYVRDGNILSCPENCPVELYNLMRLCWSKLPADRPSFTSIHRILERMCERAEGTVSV
In short: (§1)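 T7 phage-fused kinases; compound displaces immobilized ATP-site probe ligand; bead-bound kinase quantified; % inhibition reported.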

[2] = target: T2, panel of 203 kinases (Homo sapiens, UniProt P07333); details: 10 µM, n=1; kinase CSF1R; read-out: Percent inhibition CSF1R
T2 construct: purchased DiscoverX (KINOMEscan)
In short: as §1

[3] = target: T3, panel of 203 kinases (Homo sapiens, UniProt P11362); details: 10 µM, n=1; kinase FGFR1; read-out: Percent inhibition FGFR1
T3 construct: purchased DiscoverX (KINOMEscan)
In short: as §1

[4] = target: T4, panel of 203 kinases (Homo sapiens, UniProt P29320); details: 10 µM, n=1; kinase EPHA3; read-out: Percent inhibition EPHA3
T4 construct: purchased DiscoverX (KINOMEscan)
T4 sequence (P29320 21-983): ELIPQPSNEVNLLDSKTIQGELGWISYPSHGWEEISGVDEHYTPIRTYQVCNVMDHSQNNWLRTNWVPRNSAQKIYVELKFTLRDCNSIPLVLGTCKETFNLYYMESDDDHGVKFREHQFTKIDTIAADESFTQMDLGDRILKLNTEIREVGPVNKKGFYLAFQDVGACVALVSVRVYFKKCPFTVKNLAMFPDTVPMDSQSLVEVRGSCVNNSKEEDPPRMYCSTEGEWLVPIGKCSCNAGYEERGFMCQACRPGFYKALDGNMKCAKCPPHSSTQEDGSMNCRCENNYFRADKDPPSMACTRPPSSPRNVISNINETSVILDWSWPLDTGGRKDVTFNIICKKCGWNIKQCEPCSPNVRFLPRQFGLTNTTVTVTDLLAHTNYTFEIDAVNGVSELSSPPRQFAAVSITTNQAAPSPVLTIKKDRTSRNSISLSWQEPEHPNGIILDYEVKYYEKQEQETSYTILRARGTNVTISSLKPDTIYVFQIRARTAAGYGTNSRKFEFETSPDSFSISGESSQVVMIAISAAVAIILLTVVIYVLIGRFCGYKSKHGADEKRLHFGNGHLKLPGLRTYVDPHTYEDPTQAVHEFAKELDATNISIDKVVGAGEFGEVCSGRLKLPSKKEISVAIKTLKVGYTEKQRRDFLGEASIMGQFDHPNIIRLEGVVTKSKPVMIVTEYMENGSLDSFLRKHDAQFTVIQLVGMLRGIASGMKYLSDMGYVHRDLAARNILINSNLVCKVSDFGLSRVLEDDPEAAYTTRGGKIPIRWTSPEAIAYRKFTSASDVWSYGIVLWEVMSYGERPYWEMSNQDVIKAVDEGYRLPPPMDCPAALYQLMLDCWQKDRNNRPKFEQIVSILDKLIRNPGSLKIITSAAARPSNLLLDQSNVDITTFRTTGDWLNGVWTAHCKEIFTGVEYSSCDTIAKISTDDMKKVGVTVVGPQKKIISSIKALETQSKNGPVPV
In short: as §1

[5] = target: T5, panel of 203 kinases (Homo sapiens, UniProt P51451); details: 10 µM, n=1; kinase BLK; read-out: Percent inhibition BLK
T5 construct: purchased DiscoverX (KINOMEscan)
In short: as §1

[6] = target: T6, panel of 203 kinases (Homo sapiens, UniProt P53778); details: 10 µM, n=1; kinase p38-gamma; read-out: Percent inhibition p38-gamma
T6 construct: purchased DiscoverX (KINOMEscan)
T6 sequence (P53778 1-367): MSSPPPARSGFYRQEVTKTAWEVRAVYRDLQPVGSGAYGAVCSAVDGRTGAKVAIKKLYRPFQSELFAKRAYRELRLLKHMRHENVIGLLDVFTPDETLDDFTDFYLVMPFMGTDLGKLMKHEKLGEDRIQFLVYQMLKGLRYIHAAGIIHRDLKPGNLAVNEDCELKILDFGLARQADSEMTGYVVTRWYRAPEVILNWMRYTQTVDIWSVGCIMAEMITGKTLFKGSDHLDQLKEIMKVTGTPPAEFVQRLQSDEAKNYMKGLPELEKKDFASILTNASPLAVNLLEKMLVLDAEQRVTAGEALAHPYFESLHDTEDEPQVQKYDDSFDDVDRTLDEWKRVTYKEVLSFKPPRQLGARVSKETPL
In short: as §1

[7] = target: T7, panel of 203 kinases (Homo sapiens, UniProt Q13554); details: 10 µM, n=1; kinase CAMK2B; read-out: Percent inhibition CAMK2B
T7 construct: purchased DiscoverX (KINOMEscan)
In short: as §1

[8] = target: T8, panel of 203 kinases (Homo sapiens, UniProt Q15375); details: 10 µM, n=1; kinase EPHA7; read-out: Percent inhibition EPHA7
T8 construct: purchased DiscoverX (KINOMEscan)
In short: as §1

[9] = target: T9, panel of 203 kinases (Homo sapiens, UniProt Q9Y4K4); details: 10 µM, n=1; kinase MAP4K5; read-out: Percent inhibition MAP4K5
T9 construct: purchased DiscoverX (KINOMEscan)
In short: as §1

T5 sequence (P51451 whole entry): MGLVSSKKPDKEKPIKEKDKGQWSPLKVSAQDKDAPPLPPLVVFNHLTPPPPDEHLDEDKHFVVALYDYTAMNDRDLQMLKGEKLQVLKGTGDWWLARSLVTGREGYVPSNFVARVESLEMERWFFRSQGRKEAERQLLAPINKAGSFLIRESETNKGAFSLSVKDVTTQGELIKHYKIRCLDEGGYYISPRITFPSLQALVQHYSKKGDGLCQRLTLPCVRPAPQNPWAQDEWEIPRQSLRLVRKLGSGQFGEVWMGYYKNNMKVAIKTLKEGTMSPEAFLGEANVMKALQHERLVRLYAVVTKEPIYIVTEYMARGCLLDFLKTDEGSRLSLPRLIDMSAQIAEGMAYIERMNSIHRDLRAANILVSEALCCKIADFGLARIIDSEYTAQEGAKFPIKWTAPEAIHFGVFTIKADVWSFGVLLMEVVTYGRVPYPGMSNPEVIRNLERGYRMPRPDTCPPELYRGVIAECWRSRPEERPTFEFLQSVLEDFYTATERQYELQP
T9 sequence (Q9Y4K4 whole entry): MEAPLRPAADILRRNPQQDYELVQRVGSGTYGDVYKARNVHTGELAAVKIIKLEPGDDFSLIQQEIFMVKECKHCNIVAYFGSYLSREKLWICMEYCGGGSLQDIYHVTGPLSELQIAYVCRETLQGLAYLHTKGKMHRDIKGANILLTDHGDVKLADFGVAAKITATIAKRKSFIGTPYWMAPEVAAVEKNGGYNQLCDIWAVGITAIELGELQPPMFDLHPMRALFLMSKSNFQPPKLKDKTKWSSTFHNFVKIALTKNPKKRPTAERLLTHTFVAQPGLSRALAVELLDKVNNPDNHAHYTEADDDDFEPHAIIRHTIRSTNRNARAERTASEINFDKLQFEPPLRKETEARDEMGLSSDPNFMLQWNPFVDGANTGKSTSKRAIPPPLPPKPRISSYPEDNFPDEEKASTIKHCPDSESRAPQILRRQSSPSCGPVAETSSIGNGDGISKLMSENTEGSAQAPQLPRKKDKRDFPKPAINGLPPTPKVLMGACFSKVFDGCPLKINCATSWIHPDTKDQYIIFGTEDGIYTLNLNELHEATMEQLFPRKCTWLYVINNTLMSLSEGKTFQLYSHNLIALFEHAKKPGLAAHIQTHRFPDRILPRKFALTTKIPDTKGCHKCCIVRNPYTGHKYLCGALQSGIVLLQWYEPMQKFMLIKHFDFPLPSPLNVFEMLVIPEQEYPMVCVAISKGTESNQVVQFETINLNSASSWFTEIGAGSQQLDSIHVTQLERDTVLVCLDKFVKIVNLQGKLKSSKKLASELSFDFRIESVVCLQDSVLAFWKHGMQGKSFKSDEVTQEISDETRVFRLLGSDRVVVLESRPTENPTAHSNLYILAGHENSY
T8 sequence (Q15375 28-998): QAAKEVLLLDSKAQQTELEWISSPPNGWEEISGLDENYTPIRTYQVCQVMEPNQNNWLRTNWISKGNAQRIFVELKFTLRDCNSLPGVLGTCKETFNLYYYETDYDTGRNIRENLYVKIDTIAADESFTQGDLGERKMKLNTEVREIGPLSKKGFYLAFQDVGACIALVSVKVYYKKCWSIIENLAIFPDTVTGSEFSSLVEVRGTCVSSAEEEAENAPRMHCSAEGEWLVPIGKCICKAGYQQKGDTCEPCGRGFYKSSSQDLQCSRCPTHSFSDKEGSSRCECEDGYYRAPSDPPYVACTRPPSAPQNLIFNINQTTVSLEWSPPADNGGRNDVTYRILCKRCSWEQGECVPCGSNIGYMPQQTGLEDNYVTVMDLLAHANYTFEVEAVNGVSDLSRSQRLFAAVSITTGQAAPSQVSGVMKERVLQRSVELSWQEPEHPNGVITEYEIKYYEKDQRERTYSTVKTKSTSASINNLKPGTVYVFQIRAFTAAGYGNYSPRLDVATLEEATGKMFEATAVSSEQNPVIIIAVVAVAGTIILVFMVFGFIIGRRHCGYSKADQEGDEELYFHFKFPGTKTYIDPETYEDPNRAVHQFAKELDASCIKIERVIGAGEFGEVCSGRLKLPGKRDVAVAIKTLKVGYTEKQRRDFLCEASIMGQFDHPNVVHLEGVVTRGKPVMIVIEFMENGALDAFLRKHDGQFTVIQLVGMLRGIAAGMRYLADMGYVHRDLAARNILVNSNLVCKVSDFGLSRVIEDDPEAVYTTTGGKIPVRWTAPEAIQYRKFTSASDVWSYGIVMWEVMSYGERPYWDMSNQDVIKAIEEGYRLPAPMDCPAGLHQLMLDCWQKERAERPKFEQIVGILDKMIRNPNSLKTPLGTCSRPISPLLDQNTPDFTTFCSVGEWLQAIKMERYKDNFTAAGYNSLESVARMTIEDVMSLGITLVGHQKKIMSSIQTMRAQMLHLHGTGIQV
T2 sequence (P07333 20-972): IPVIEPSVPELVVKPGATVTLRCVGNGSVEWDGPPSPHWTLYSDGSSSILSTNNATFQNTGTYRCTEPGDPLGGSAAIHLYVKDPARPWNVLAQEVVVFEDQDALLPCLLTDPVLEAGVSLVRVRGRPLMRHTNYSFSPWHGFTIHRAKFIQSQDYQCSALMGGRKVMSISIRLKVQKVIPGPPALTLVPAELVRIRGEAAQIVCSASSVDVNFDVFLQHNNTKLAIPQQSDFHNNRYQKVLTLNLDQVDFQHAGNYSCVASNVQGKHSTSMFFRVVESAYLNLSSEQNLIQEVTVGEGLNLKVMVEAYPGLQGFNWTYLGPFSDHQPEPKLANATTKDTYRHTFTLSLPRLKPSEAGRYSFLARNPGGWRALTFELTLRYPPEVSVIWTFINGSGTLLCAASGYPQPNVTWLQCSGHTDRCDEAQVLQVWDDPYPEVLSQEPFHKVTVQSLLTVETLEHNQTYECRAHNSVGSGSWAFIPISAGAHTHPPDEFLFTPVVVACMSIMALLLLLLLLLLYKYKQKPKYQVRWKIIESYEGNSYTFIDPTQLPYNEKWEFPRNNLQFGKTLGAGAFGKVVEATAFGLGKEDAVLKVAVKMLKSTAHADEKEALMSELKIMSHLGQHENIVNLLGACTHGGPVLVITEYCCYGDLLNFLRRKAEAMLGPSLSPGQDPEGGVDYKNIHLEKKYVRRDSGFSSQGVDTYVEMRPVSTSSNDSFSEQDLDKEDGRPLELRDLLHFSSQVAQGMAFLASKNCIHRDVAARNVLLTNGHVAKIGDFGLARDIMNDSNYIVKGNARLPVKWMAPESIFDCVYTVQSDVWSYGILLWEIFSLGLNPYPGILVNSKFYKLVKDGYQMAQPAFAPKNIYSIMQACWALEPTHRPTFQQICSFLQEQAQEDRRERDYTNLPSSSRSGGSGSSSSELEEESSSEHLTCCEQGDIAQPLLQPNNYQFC
T3 sequence (P11362 22-822): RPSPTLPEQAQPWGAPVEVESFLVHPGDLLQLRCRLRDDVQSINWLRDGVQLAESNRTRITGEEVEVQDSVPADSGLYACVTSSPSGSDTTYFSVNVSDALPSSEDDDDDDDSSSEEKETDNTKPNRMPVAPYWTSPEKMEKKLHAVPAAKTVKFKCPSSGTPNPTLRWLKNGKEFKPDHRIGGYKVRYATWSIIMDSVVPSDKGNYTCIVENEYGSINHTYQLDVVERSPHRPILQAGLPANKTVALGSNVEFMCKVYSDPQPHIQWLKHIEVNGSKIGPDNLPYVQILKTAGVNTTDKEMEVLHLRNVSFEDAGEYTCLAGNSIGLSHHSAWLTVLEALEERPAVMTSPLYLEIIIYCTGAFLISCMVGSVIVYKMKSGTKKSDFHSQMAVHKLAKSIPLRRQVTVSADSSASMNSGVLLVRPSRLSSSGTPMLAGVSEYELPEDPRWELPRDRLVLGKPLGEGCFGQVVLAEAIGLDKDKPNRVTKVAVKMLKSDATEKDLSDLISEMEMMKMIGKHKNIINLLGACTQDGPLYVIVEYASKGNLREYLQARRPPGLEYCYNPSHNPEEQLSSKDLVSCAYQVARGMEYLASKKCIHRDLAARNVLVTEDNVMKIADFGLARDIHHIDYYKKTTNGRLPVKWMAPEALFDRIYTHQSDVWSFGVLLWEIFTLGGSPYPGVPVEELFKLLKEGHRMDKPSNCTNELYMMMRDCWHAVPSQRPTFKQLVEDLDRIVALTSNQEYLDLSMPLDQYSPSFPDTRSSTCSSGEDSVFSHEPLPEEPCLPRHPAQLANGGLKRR
T7 sequence (Q13554 whole entry): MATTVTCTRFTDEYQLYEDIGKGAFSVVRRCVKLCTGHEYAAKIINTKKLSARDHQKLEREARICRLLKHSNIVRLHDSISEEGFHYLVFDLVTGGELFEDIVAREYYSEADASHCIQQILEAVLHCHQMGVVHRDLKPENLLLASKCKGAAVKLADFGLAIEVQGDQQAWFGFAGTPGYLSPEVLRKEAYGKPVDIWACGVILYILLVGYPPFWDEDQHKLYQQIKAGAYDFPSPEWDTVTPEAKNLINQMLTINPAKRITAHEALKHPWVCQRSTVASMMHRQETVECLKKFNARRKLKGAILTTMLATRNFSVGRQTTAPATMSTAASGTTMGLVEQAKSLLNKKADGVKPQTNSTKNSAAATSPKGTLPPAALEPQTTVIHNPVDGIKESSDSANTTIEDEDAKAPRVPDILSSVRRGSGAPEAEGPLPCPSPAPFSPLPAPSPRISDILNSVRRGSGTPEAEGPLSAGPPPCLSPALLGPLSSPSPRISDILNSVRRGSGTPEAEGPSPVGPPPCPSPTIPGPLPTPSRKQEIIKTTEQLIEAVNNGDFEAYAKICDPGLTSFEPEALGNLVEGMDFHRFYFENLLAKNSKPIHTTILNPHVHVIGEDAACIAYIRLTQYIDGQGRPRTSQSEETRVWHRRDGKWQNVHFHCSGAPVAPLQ

Row | SMILES | inhibition at 10 µM [1] | inhibition at 10 µM [2] | inhibition at 10 µM [3] | inhibition at 10 µM [4] | inhibition at 10 µM [5] | inhibition at 10 µM [6] | inhibition at 10 µM [7] | inhibition at 10 µM [8] | inhibition at 10 µM [9]
1 | CN1CCN(c2ccc(Nc3nccc(-c4cnn5ncccc45)n3)cc2C#N)CC1 [Compound 1] | 98.8% | 99.4% | 74.1% | 98% | 84.8% | 0% | 96.5% | 67.3% | 93%
2 | COc1ccc(Nc2nccc(-c3cnn4ncccc34)n2)cc1 [Compound 2] | 74.8% | 99.8% | 0% | 85% | 63.8% | 88.4% | 73.9% | 74.6% | 0%
3 | Cc1ccc(O)cc1Nc1ccnc(Nc2cccc(C(N)=O)c2)n1 [Compound 3] | 0% | 98.9% | 0% | 100% | 99.6% | 0% | 0% | 84% | 94.6%
4 | Cc1ccc(O)cc1N(C)c1ccnc(Nc2cccc(S(N)(=O)=O)c2)n1 [Compound 4] | 0% | 100% | 0% | 100% | 99.4% | 93% | 0% | 100% | 99.1%
5 | Fc1cccc(COc2ccc(Nc3ncnc4c3CN(CCN3CCOCC3)CC4)cc2Cl)c1 [Compound 6] | 0% | 0% | 0% | 0% | 0% | 0% | 0% | 0% | 0%
6 | COc1cc(Nc2nccc(-c3sc(N)nc3-c3cccc(NC(=O)c4c(F)cccc4F)c3)n2)cc(OC)c1OC [Compound 7] | 97.2% | 100% | 99.7% | 99.7% | 99% | 0% | 0% | 0% | 99.9%
7 | C[C@@H](Oc1cc(-c2cnc3ccccn23)sc1C(N)=O)c1ccccc1Cl [Compound 8] | 0% | 0% | 0% | 0% | 0% | 0% | 0% | 0% | 82.7%
8 | c1ccc(COc2cccc(-c3ccnc4[nH]ccc34)c2)cc1 [Compound 9] | 0% | 0% | 0% | 0% | 0% | 0% | 0% | 0% | 0%
9 | Clc1ccc(Nc2ncc(-c3ccccc3)s2)cc1 [Compound 10] | 0% | 0% | 0% | 0% | 0% | 0% | 0% | 0% | 0%
10 | Nc1ncc2c(-c3ccncc3)c[nH]c2n1 [Compound 11] | 93.9% | 0% | 0% | 94.6% | 0% | 0% | 85.7% | 0% | 0%
